Data published in paper PMC4666645 (PLoS Pathogens, 2015).
Counter-ions that a name gives are not always drawn. Like-named read-outs stand apart in the source and are kept apart here.

Key:
[1] = test system: C. elegans expressing Hco-26/27; assay: Thrashing assay on transgenic C. elegans expressing Hco-26/27; type: in vivo, Caenorhabditis elegans
Text: (§1) Taking advantage of the absence of acr-26 and acr-27 homologs in the C. elegans genome, we used wild type N2 worms to express these two parasitic nematode AChR subunits. […] For Peq-ACR-26 and Peq-ACR-27, even though the localization of these subunits in Parascaris equorum remains to be investigated in more detail, we also used myo3 as a promoter in order to compare the functional impact of Hco-26/27 and Peq-26/27 on both motility and drug sensitivity in transgenic C. elegans.
(§2) Worms were maintained at 20°C on nematode growth medium (NGM) plates and fed on a bacterial lawn (Escherichia coli OP50). Bristol N2 was used as a reference wild-type C. elegans strain. Dose-response assays were performed on gravid adults placed in wells of a 96-well plate containing M9 salt solution (3 g/L KH2PO4, 6 g/L Na2HPO4, 5 g/L NaCl, and 1 mM MgSO4 with BSA at 0.1%) with varying anthelmintic concentrations. After 10 min, worm thrashing was counted for 1 min. A thrash was defined as a change in the direction of bending at the mid-body to return to the initial position. For each drug concentration, 30 worms were tested. Hco-acr-26, Hco-acr-27, Peq-acr-26 and Peq-acr-27 coding sequences were sub-cloned into the pPD96.52 (Addgene) vector containing the muscle promoter Pmyo3. Primer sequences containing the suitable restriction sites are listed in S3 Table. Extrachromosomal transgenic strains of C. elegans were obtained by micro-injecting DNA into the gonads of young adult hermaphrodite worms as described. N2 worms were injected with different mixes containing Pmyo3::Hco-acr-26; Pmyo3::Hco-acr-27; Pmyo3::Peq-acr-26; Pmyo3::Peq-acr-27 alone or in combination (Pmyo3::Hco-acr-26 + Pmyo3::Hco-acr-27 or Pmyo3::Peq-acr-26 + Pmyo3::Peq-acr-27) with a final concentration of 40 ng/μl for each plasmid. The plasmid pPD118.33_Pmyo2::gfp (Addgene) was co-injected at 25 ng/μl as a transformation marker. […] Thrashes produced by each worm during 1 minute were counted after a 10 minutes equilibration period. After drug application, thrashes were counted after 10, 20 and 30 minutes of exposure. […]

Hco-26/27 receptor = Hco-26/27 receptor (Haemonchus contortus, UniProt A9XX30+S4VAP0); assay: cell-based
Text: In order to investigate if the overlapping expression contributed to functional receptors, we co-expressed Hco-ACR-26 and Hco-ACR-27 in Xenopus laevis oocytes. We have previously reported that the functional expression of nematode muscle AChRs in Xenopus oocytes requires the addition of ancillary proteins. Therefore, cRNAs encoding the subunits Hco-ACR-26 and Hco-ACR-27, in combination with three ancillary proteins (Hco-ric-3.1, Hco-unc-74 and Hco-unc-50) were co-injected into Xenopus oocytes. […] Subsequently, different cRNA combinations were injected into Xenopus oocytes in order to determine the minimal subunit combination leading to the expression of a functional receptor and verify the ancillary factor requirement.
The subunit stoichiometry has been previously reported to impact the pharmacological properties of some nematode AChRs expressed in Xenopus oocytes.
H. contortus and P. equorum acr-26 and acr-27 cDNAs were PCR-amplified using primers containing a restriction site in order to be sub-cloned into the expression vector pTB207 that is suitable for in vitro transcription. Primers are listed in S3 Table. The resulting plasmids were linearized with the NheI restriction enzyme (Fermantas) and used as templates for cRNA synthesis using the T7 mMessage mMachine kit (Ambion). Xenopus laevis ovaries were obtained from the University of Rennes, France (CRB Xenope) and defolliculated using 2 mg/ml collagenase type II (Gibco) in the incubation solution containing: 100 mM NaCl, 2 mM KCl, 1.8 mM CaCl2.2H2O, 1 mM MgCl2.6H2O, 5 mM HEPES, 2.5 mM C3H3NaO3, pH 7.5, supplemented with penicillin 100 U/mL and streptomycin 100 μg/mL). The oocytes were injected in the animal pole with a total volume of 36 nL of cRNA mix containing 50 ng/μL of each cRNA in RNase-free water using the Drummond nanoject II microinjector. Microinjected oocytes were kept at 20°C in incubation medium for 4 days to allow the receptors expression. Two-electrode voltage-clamp recordings were carried out using an Oocyte Clamp OC-725C amplifier (Warner instrument) in oocytes being voltage-clamped at -60mV. All agonist preparations were prepared with recording buffer (100 mM NaCl, 2.5 mM KCl, 1 mM CaCl2.2H2O, 5 mM HEPES, pH 7.3). Currents were recorded and analyzed using the pCLAMP 10.4 package (Molecular Devices).

C. elegans N2 = assay: Dose-response thrashing assay on wild-type C. elegans N2; type: in vivo, Caenorhabditis elegans; conditions: for Minimal drug concentration causing significant reduction in wild-type motility: 10 min exposure
Procedure: Worms were maintained at 20°C on nematode growth medium (NGM) plates and fed on a bacterial lawn (Escherichia coli OP50). Bristol N2 was used as a reference wild-type C. elegans strain. Dose-response assays were performed on gravid adults placed in wells of a 96-well plate containing M9 salt solution (3 g/L KH2PO4, 6 g/L Na2HPO4, 5 g/L NaCl, and 1 mM MgSO4 with BSA at 0.1%) with varying anthelmintic concentrations. After 10 min, worm thrashing was counted for 1 min. A thrash was defined as a change in the direction of bending at the mid-body to return to the initial position. For each drug concentration, 30 worms were tested. Hco-acr-26, Hco-acr-27, Peq-acr-26 and Peq-acr-27 coding sequences were sub-cloned into the pPD96.52 (Addgene) vector containing the muscle promoter Pmyo3. Primer sequences containing the suitable restriction sites are listed in S3 Table. Extrachromosomal transgenic strains of C. elegans were obtained by micro-injecting DNA into the gonads of young adult hermaphrodite worms as described. N2 worms were injected with different mixes containing Pmyo3::Hco-acr-26; Pmyo3::Hco-acr-27; Pmyo3::Peq-acr-26; Pmyo3::Peq-acr-27 alone or in combination (Pmyo3::Hco-acr-26 + Pmyo3::Hco-acr-27 or Pmyo3::Peq-acr-26 + Pmyo3::Peq-acr-27) with a final concentration of 40 ng/μl for each plasmid. The plasmid pPD118.33_Pmyo2::gfp (Addgene) was co-injected at 25 ng/μl as a transformation marker. For each mixes, at least two independent lines were generated. For each line, thrashing assays were carried on at least 12 F1-worms carrying the selection marker. L4 larvae from N2 and transformed worms were transferred one day before the thrashing assay on NGM plate. One young adult was placed in each well of a 12-well plate containing M9 salt buffer. Thrashes produced by each worm during 1 minute were counted after a 10 minutes equilibration period. After drug application, thrashes were counted after 10, 20 and 30 minutes of exposure. Experimental data are shown as mean ± SEM. Statistical comparisons were done using the paired or unpaired Student’s t test or one-way ANOVA with Tukey’s multiple comparison test. A level of p<0.05 was considered significant. For each line, expression of the introduced acr-26 and/or acr-27 coding sequences from H. contortus or P. equorum was confirmed by RT-PCR experiments performed on 12 pooled worms. A partial sequence corresponding to the C. elegans endogenous AChR unc-38 transcript was amplified with primers designed on two independent exons in order to control the cDNA template quality. Primer sequences are listed in S3 Table.
Supplementary file ppat.1005267.s004.tif: S4 Fig Thrashing assays performed on C. elegans (N2) with different anthelmintic molecules. […] Thrashes of gravid wild-type adults were counted for one minute after 10 minutes of drug exposure. […] Results are expressed as mean ± SEM derived from three independent sets of experiments. For each treatment, 30 worms were included in the analysis. […] Statistical analyses were performed using a One-Way Anova with Tukey’s Multiple Comparison Test with **p<0.01, ***p<0.001. (TIF) Click here for additional data file.

[2] = test system: C. elegans expressing Peq-26/27; assay: Thrashing assay on transgenic C. elegans expressing Peq-26/27; type: in vivo, Caenorhabditis elegans
Text: as §1, §2

[3] = read-out: Relative maximal current (Imax) normalized to 100 μM acetylcholine, cRNA ratio 1:1 26/27, 100 μM agonist
[4] = read-out: Relative maximal current (Imax) normalized to 100 μM acetylcholine, cRNA ratio 1:5 26/27, 100 μM agonist
[5] = read-out: Relative maximal current (Imax) normalized to 100 μM acetylcholine, cRNA ratio 5:1 26/27, 100 μM agonist
[6] = Caenorhabditis elegans, 10 min, 10 min drug exposure, gravid adults, read-out: IC50 (reduction of thrashing)
[7] = read-out: Current elicited, % of ACh response, 100 μM agonist, normalized to 100 μM ACh current, equal subunit ratio
[8] = 50 μM Pyr, 10 minutes of drug exposure

Hco-26/27 receptor, sequence (A9XX30 entry or part of it): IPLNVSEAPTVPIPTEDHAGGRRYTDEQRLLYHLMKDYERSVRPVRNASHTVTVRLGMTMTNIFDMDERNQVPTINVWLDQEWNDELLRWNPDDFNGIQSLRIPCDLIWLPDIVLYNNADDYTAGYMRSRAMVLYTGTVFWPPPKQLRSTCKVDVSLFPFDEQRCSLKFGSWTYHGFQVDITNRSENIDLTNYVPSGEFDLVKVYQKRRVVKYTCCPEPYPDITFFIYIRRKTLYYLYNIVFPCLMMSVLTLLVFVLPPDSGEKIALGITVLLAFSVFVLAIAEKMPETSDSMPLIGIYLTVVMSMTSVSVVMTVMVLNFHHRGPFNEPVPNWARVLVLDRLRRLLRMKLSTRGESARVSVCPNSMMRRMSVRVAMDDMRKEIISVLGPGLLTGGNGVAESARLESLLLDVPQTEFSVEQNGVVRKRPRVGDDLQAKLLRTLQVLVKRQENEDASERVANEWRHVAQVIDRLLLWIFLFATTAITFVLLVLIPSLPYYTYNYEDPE
Hco-26/27 receptor, sequence (S4VAP0 entry or part of it): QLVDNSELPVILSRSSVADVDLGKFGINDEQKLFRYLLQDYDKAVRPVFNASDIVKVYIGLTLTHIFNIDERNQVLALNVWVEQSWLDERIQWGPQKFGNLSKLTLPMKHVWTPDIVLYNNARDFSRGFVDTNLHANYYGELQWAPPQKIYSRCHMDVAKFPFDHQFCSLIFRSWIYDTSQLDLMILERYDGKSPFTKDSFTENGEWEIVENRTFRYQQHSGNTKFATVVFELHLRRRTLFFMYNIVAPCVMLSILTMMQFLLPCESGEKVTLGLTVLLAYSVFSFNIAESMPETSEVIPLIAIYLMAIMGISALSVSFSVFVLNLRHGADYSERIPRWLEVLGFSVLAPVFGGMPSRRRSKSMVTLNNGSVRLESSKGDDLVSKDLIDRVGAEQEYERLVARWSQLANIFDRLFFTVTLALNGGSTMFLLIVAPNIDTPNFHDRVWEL

| SMILES | Change in sensitivity versus N2 ([1]; 5 μM Lev) | Current elicited, % of ACh response (Hco-26/27 receptor; 100 μM agonist, normalized to 100 μM ACh current, equal subunit ratio) | Emax at 100 µM (Hco-26/27 receptor; [3]) [%] | Emax at 100 µM (Hco-26/27 receptor; [4]) [%] | Emax at 100 µM (Hco-26/27 receptor; [5]) [%] | Minimal drug concentration causing significant reduction in wild-type motility (C. elegans N2) [µM] | IC50 (C. elegans N2; [6]) [µM] | Change in sensitivity versus N2 ([2]; 5 μM Lev) | Reduction of thrashing motility ([1]; 40 μM Mor, 10 minutes exposure) [%] | EC50 (Hco-26/27 receptor) [µM] | Imax reduction with fivefold increase of Hco-ACR-27 versus equal subunit ratios (Hco-26/27 receptor; 100 μM, p<0.001) [fold] | Emax at 100 µM (Hco-26/27 receptor; [7]) [%] | IC50 (C. elegans N2; Caenorhabditis elegans, 10 min, read-out: IC50 (reduction of thrashing), 10 min drug exposure, gravid adults) [µM] | IC50 (C. elegans N2; read-out: IC50 (reduction of thrashing), 10 min drug exposure, gravid adults) [µM] | Reduction of thrashing motility ([2]; 40 μM Mor, 10 minutes exposure) [%] | Percentage reduction of thrashes min^-1 [1, 8] [%] | Percentage reduction of thrashes min^-1 [2, 8] [%] |
| --- | --- | --- | --- | --- | --- | --- | --- | --- | --- | --- | --- | --- | --- | --- | --- | --- | --- |
| c1ccc([C@H]2CN3CCSC3=N2)cc1 [Lev, (-)-tetramisole hydrochloride] | no significant change | insensitive | 3.46 ± 1.44 | 4.18 ± 2.89 | 1.77 ± 1.77 | 5 | 7 ± 1.1 | no significant change |  |  |  |  |  |  |  |  |  |
| Cc1ccsc1/C=C/C1=NCCCN1C [Mor, morantel] |  |  | 249 ± 11.5 | 137 ± 19.7 | 265 ± 29.1 | 40 |  |  | 93.3 | 29 ± 1.3 | 2 | 249 ± 11.5 | 44 ± 1.03 | 44.1 ± 1 | 62.7 |  |  |
| CN1CCCN=C1/C=C/c1cccs1 [Pyr, pyrantel] |  |  | 81 ± 6.21 | 83.1 ± 17.9 | 84.1 ± 8.54 | 50 | 107 ± 1.2 |  |  | 6.8 ± 1.3 |  | 81 ± 6.21 |  |  |  | 65.4 | 61.6 |
